Data on four molecules can be found in publication PMC9101642 (Molecules, 2022).

Like-named read-outs stand apart in the source and are kept apart here. Marks after values point to notes of the source that are not given here.

Data set [1] addresses ERβ (Homo sapiens, UniProt Q92731). Description: Fluorescence polarization competition assay: antagonistic potency and relative binding affinity. The note with it: for logRBA ERβ: log of % relative binding affinity, estradiol = 100%.
The target of data set [2] is T1, ERα (Homo sapiens, UniProt P03372).
T1 sequence (P03372 1-595): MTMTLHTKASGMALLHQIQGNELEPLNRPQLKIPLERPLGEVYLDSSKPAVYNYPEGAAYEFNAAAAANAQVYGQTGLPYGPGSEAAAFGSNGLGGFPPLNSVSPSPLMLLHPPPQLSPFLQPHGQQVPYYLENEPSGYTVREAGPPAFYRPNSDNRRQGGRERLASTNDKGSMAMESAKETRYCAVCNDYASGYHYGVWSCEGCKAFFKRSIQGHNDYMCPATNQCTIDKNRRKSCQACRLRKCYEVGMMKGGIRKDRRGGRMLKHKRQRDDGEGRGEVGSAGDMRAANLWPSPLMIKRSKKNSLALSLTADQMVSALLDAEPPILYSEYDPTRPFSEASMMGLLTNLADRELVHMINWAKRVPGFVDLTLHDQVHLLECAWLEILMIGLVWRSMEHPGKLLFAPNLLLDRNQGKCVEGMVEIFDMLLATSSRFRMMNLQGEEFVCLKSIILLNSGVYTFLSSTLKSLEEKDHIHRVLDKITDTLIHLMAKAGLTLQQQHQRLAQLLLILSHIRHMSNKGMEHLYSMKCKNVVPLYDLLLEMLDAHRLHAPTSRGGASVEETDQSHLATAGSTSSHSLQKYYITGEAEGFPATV
The data set is described as above. The conditions noted are these: for logRBA ERα: log of % relative binding affinity, estradiol = 100%; for ERα potency, fold higher than Ral / ERα potency, fold more potent than 4-OHT: ratio of IC50 values.

Data set [3] concerns progesterone receptor (PR). Description: ERα functional antagonism cell assay (PR as biomarker) in MCF-7. It counts as cell-based. The note with it: Homo sapiens, MCF7; progesterone receptor as biomarker for ERα antagonism in MCF-7.
A short description of data set [4]: MTT antiproliferative assay (neutral control). The conditions noted are these: human.
Data set [5] relates to MCF-7 cell lines. The data set is described as follows: MTT antiproliferative assay. It counts as cell-based, human. The conditions noted are these: for IC50: Homo sapiens, MCF7, growth inhibition, 48 h, read-out: MCF-7 (IC50 nM); for MCF-7 antiproliferative potency, fold higher than Ral: ratio of IC50 values; for SI: selectivity index [IC50(MDA-MB-231)]/[IC50(MCF-7)].
The target of data set [6] is T1, ERα. The data set is described as follows: ERα down-regulation immunofluorescence assay in MCF-7. It counts as cell-based.
Data set [7] has as its system Ishikawa endometrial adenocarcinoma cells. The data set is described as follows: Antiproliferative assay. In kind it is cell-based. The note with it: Homo sapiens, growth inhibition. From the text: As SERMs profile is often associated with the stimulation of endometrial cell proliferation and an increase in the incidence of endometrial cancer (EC), the herein compounds were therefore evaluated against Ishikawa endometrial adenocarcinoma cells (Table 8, Supplementary Material Figures […]). […] However, future experimental elaboration, currently beyond the authors' experimental facilities, is required to confirm compounds' promising profiles in terms of no EC induction.

For data set [8], the system named is MDA-MB-231 cell lines. Description: MTT antiproliferative assay. In kind it is cell-based, human. The conditions noted are these: Homo sapiens, MDA-MB-231; growth inhibition, 48 h; read-out: MDA-MB-231 (IC50 nM).
For data set [9], the system named is MCF-7 cells. Description: Cell cycle distribution by flow cytometry. In kind it is cell-based, human. The note with it: 24 h.
Where [10] appears, read: calculated antagonistic (inhibitory) constant.
Where [11] appears, read: concentration that antagonizes 50% of ERβ signaling activity, read-out: ERβ (IC50 nM).
[12] abbreviates: concentration that antagonizes 50% of ERα signaling activity, read-out: ERα (IC50 nM).
Setting [13] is: ERα downregulation measured in MCF-7, read-out: MCF-7 DR (IC50 nM).
The mark [14] stands for this setting: 1 nM as lower concentration (3DPQ-5, 3DPQ-6, 3DPQ-8).

Sequence of ERβ (Q92731 whole entry): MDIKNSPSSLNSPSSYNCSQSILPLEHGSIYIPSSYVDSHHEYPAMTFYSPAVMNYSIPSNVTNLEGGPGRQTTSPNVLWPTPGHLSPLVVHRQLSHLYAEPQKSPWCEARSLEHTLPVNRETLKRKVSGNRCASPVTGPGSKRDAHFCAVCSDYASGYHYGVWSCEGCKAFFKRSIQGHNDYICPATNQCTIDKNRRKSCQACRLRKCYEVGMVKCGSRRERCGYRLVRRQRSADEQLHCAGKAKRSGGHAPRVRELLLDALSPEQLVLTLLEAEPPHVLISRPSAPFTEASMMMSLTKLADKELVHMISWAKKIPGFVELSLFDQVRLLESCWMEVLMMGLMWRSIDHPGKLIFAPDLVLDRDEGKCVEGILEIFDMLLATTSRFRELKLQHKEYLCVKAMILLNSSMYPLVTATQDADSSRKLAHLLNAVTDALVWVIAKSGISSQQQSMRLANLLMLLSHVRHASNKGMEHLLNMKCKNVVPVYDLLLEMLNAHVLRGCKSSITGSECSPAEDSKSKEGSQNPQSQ

Turning to `CC(=O)c1cc(C(=O)O[C@@H]2/C=C/C(=O)O[C@@H](O)CCC/C=C/[C@@H]3C[C@H](O)C[C@H]32)ccc1OCCN1C=Cc2ccccc2C1` [Compound 3DPQ-7, (1R,2E,6R,10E,11aS,13S,14aR)-6,13-dihydroxy-4-oxo-4,6,7,8,9,11a,12,13,14,14a-decahydro-1H-cyclopenta[f][1]oxacyclotridecin-1-yl 3-acetyl-4-(2-(isoquinolin-2(1H)-yl)ethoxy)benzoate], in [1] (setting [10]), the “Ka ERβ (nM)” value is 40.64 ^†,‡,§ nM. Moreover, the IC50 was 72.34 ± 0.17 nM in data set [1] (setting [11]); 0.64 ± 0.13 nM in data set [2] (setting [12]); more than 100 nM in [3]; 0.78 ± 0.52 nM in data set [5]; more than 100 nM in data set [6] (setting [13]); 1.74 ± 0.43 nM in data set [7]. Also, the IC50 in [8] was found to be 52 ± 0.68 nM. Besides, the “logRBA ERβ” value in data set [1] is 0.09 ^†,‡,§. Moreover, the “Ka ERα (nM)” value in data set [2] (setting [10]) is 0.14 ^†,‡ nM. The “logRBA ERα” value in data set [2] is 2.14 ^†,‡. Also, the “ERα potency, fold higher than Ral” value in data set [2] was 1.16 fold. In data set [4], this molecule gave an IC50 at 48 h of more than 100 nM. Besides, the “MCF-7 antiproliferative potency, fold higher than Ral” value in [5] is listed as 1.14 fold. Moreover, in data set [5], the SI is 66.61 ^‡,§. The entries for the “Cell Cycle (%) G0/G1” value in data set [9] (0.1 nM) and in data set [9] (1 nM) were 73.25 ± 2.54 *^,†,‡,§ % and 75.71 ± 1.43 *^,†,‡,§ %, respectively. The figures for the “Cell Cycle (%) G2/M” value in data set [9] (0.1 nM) and in data set [9] (1 nM) were 12.69 ± 2.64 *^,†,‡,§ % and 9.53 ± 3.54 *^,†,‡,§ %, respectively. Also, the “Cell Cycle (%) S” value is listed as 14.06 ± 1.58 *^,†,‡,§ % in data set [9] (0.1 nM) and 14.77 ± 1.46 *^,†,‡,§ % in [9] (1 nM).

With `CC(=O)c1cc(C(=O)O[C@@H]2/C=C/C(=O)O[C@@H](O)CCC/C=C/[C@@H]3C[C@H](O)C[C@H]32)ccc1OCCN1CCCC2CCCNC21` (stereo partly drawn) [Compound 3DPQ-8, (1R,2E,6R,10E,11aS,13S,14aR)-6,13-dihydroxy-4-oxo-4,6,7,8,9,11a,12,13,14,14a-decahydro-1H-cyclopenta[f][1]oxacyclotridecin-1-yl 3-acetyl-4-(2-(octahydro-1,8-naphthyridin-1(2H)-yl)ethoxy)benzoate], the Ki in data set [1] (calculated antagonistic (inhibitory) constant, read-out: Ka ERβ) was 40.6 nM; in [2] (calculated antagonistic (inhibitory) constant, read-out: Ka ERα), 0.18 nM. Also, the IC50 in data set [1] (setting [11]) was 72.3 ± 0.78 nM; in [2] (setting [12]), 0.81 ± 0.14 nM; in [3], more than 100 nM; in data set [5], 1.06 ± 0.45 nM; in data set [6] (setting [13]), more than 100 nM; in data set [7] it was 1.98 ± 0.32 nM. In data set [8], the IC50 is 42.56 ± 0.35 nM. The “logRBA ERβ” value in [1] was 0.09 ^†,‡,§. Also, in data set [2], the “logRBA ERα” value is given as 2.04 ^‡. Further, the “ERα potency, fold more potent than 4-OHT” value in [2] turned out to be 1.38 fold. The same molecule showed an IC50 at 48 h in data set [4] of more than 100 nM. Also, the SI in data set [5] is 40.15 ^‡,§. For the same molecule, the “Cell Cycle (%) G0/G1” value is on record as 72.39 ± 1.43 *^,†,‡,§ % in [9] (setting [14]) and 74.85 ± 2.54 *^,†,‡,§ % in data set [9] (10 nM (3DPQ-5, 3DPQ-6, 3DPQ-8)). The “Cell Cycle (%) G2/M” value is listed as 15.11 ± 2.56 *^,†,‡,§ % in data set [9] (setting [14]) and 11.95 ± 2.45 *^,†,‡,§ % in data set [9] (10 nM (3DPQ-5, 3DPQ-6, 3DPQ-8)). The “Cell Cycle (%) S” value in data set [9] (setting [14]) is 12.50 ± 1.22 *^,†,‡,§ %; in data set [9] (10 nM (3DPQ-5, 3DPQ-6, 3DPQ-8)) it was 13.21 ± 2.15 *^,†,‡,§ %.

Consider `CC(=O)c1cc(C(=O)O[C@@H]2/C=C/C(=O)O[C@@H](O)CCC/C=C/[C@@H]3C[C@H](O)C[C@H]32)ccc1OCCN1CCCCC1` [Compound 3DPQ-10, (1R,2E,6R,10E,11aS,13S,14aR)-6,13-dihydroxy-4-oxo-4,6,7,8,9,11a,12,13,14,14a-decahydro-1H-cyclopenta[f][1]oxacyclotridecin-1-yl 3-acetyl-4-(2-(piperidin-1-yl)ethoxy)benzoate], for which, in data set [1], the IC50 came out at 79.54 ± 0.76 nM, the Ki was 44.7 nM and the “logRBA ERβ” value is 0.05 ^†,‡,§. Also, in data set [2], the IC50 stood at 0.77 ± 0.14 nM; the Ki was found to be 0.17 nM; the “logRBA ERα” value is 2.06 ^‡; the “ERα potency, fold more potent than 4-OHT” value was found to be 1.45 fold. Also, the IC50 in [3] was more than 100 nM. This molecule came in with an IC50 at 48 h in data set [4] of more than 100 nM. Further, in data set [5], the IC50 was 0.97 ± 0.34 nM and the SI is on record as 42.27 ^‡,§. The molecule further came in with an IC50 in [6] of more than 100 nM. The same molecule showed an IC50 in [7] of 1.55 ± 0.42 nM. In addition, the IC50 in data set [8] was found to be 41.97 ± 0.32 nM. Also, in data set [9] (0.1 nM), the “Cell Cycle (%) G0/G1” value was 71.96 ± 1.43 *^,†,‡,§ %, the “Cell Cycle (%) G2/M” value is given as 16.08 ± 1.56 *^,†,‡,§ % and the “Cell Cycle (%) S” value was 11.96 ± 2.41 *^,†,‡,§ %. Besides, in [9] (1 nM), the “Cell Cycle (%) G0/G1” value was 74.42 ± 2.12 *^,†,‡,§ %, the “Cell Cycle (%) G2/M” value is on record as 12.92 ± 4.32 *^,†,‡,§ % and the “Cell Cycle (%) S” value is 12.67 ± 2.46 *^,†,‡,§ %.

In the case of `CC(=O)c1cc(C(=O)O[C@@H]2/C=C/C(=O)O[C@@H](O)CCC/C=C/[C@@H]3C[C@H](O)C[C@H]32)ccc1OCCN1CCCC1` [Compound 3DPQ-11, (1R,2E,6R,10E,11aS,13S,14aR)-6,13-dihydroxy-4-oxo-4,6,7,8,9,11a,12,13,14,14a-decahydro-1H-cyclopenta[f][1]oxacyclotridecin-1-yl 3-acetyl-4-(2-(pyrrolidin-1-yl)ethoxy)benzoate], in data set [1], the IC50 was found to be 76.52 ± 0.48 nM, the Ki amounted to 43 nM and the “logRBA ERβ” value is 0.07 ^†,‡,§. Besides, in data set [2], the IC50 turned out to be 0.7 ± 0.33 nM; the Ki was found to be 0.16 nM; the “logRBA ERα” value is recorded as 2.10 ^‡; the “ERα potency, fold higher than Ral” value is listed as 1.06 fold. In addition, in data set [3], the IC50 is more than 100 nM. Moreover, the IC50 at 48 h in data set [4] was more than 100 nM. In addition, in data set [5], the IC50 turned out to be 0.81 ± 0.22 nM; the “MCF-7 antiproliferative potency, fold higher than Ral” value is 1.10 fold; the SI is 82.86 ^‡,§. For the same molecule, in [6], the IC50 is more than 100 nM. In data set [7], this molecule showed an IC50 of 1.37 ± 0.47 nM. In addition, the 50% inhibitory concentration (IC50) in [8] came to 67.12 ± 0.54 nM. Further, in data set [9] (0.1 nM), the “Cell Cycle (%) G0/G1” value was 72.53 ± 0.47 *^,†,‡,§ %, the “Cell Cycle (%) G2/M” value is 14.16 ± 2.13 *^,†,‡,§ % and the “Cell Cycle (%) S” value is on record as 13.31 ± 1.66 *^,†,‡,§ %. Also, in data set [9] (1 nM), the “Cell Cycle (%) G0/G1” value was 74.99 ± 2.54 *^,†,‡,§ %, the “Cell Cycle (%) G2/M” value was 11.00 ± 3.43 *^,†,‡,§ % and the “Cell Cycle (%) S” value is given as 14.02 ± 1.43 *^,†,‡,§ %.
